Where “and” joins values, the source holds several entries; their conditions need not be identical. Equal entries are not always repeated.
Key:
[1] = system: high uric acid mice model (potassium oxonate and hypoxanthine)
Protocol: (§1) Tested animals are 5-week old male ICR mice purchased from Shanghai JSJ Laboratory Animal Co., Ltd., SPF grade. All mice were grown under the conditions of a temperature of 24±2° C., alternating 12 h light and 12 h dark, and free feeding and drinking for adaptation. After 1 week of adaptation, mice were randomly grouped into […], 7 mice in one group. The groups are normal control group, model group, positive control group, low dose Lactobacillus paracasei LT12 group, and high dose Lactobacillus paracasei LT12 group (see Table 3). Modeling period is two weeks and interfering period is four weeks. During modeling, except for the normal control group, the other groups were subjected to gavage with 300 mg/kg potassium oxonate and hypoxanthine (formulated into a suspension using 0.5% CMC-Na solution) every day for high uric acid modeling. During interference, except for the normal control group, the other groups were subjected to gavage with 300 mg/kg potassium oxonate and hypoxanthine every day for continued modeling. 2 h after modeling, each group of mice were administered at the dose according to FIG. 2. The drug samples for each group were dissolved in saline. The same amount of saline was administered to normal groups and model group.
(§2) During modeling, blood was collected through cutting the tail to detect changes in serum uric acid every week. At the last two days of the experiment, fresh feces of mice of each group were collected and kept in −20° C. refrigerator. Before sacrifice, mice were fasted for 12 h. The last modeling was conducted. Blood was collected 1 h after modeling followed by sacrifice and dissection. Mice whole blood is placed at 4° C. for 2 h followed by centrifugation at 3000 rpm for 10 min. The serum was aliquoted and stored in −80° C. refrigerator. Mice liver, kidneys, and colon were collected. One of the kidneys was preserved in 4% […] for pathological analysis. Other tissue samples were immediately freezed in liquid nitrogen and stored at −80 ° C. for preservation.
(§3) The levels of uric acid, creatinine, blood urea nitrogen, lactate dehydrogenase, xanthine oxidase (XOD), oxidative stress levels (glutathione (GSH), superoxide dismutase (SOD), glutathione peroxidase (GSH-Px), malondialdehyde (MDA), inflammatory factors (TNF-alpha, IL-1β, and IL-6)) were detected according to the detection method described in the specification in the kits. Pathological analysis on renal tissue were completed in corporation with Wuhan Servicebio Technology Co., Ltd., China. Immunoblotting analysis on renal uric acid transporter proteins were conducted according to internal methods in labs.

xanthine oxidase (XOD) = assay type: in vivo, ICR mice; settings: mice of the high uric acid model, after interference
Protocol: Tested animals are 5-week old male ICR mice purchased from Shanghai JSJ Laboratory Animal Co., Ltd., SPF grade. All mice were grown under the conditions of a temperature of 24±2° C., alternating 12 h light and 12 h dark, and free feeding and drinking for adaptation. After 1 week of adaptation, mice were randomly grouped into 10 groups, 7 mice in one group. […] Modeling period is two weeks and interfering period is four weeks. During modeling, except for the normal control group, the other groups were subjected to gavage with 300 mg/kg potassium oxonate and hypoxanthine (formulated into a suspension using 0.5% CMC-Na solution) every day for high uric acid modeling. During interference, except for the normal control group, the other groups were subjected to gavage with 300 mg/kg potassium oxonate and hypoxanthine every day for continued modeling. 2 h after modeling, each group of mice were administered at the dose according to FIG. 2. The drug samples for each group were dissolved in saline. […]
The levels of uric acid, creatinine, blood urea nitrogen, lactate dehydrogenase, xanthine oxidase (XOD), oxidative stress levels (glutathione (GSH), superoxide dismutase (SOD), glutathione peroxidase (GSH-Px), malondialdehyde (MDA), inflammatory factors (TNF-alpha, IL-1β, and IL-6)) were detected according to the detection method described in the specification in the kits. […]

[2] = system: high uric acid mice model (potassium oxonate and hypoxanthine); assay type: in vivo, ICR mice; parameters: inflammatory cell infiltration (pathological score) / renal tubules hydropic degeneration (pathological score) / renal tubules atrophy (pathological score) / renal tubules dilation (pathological score) / connective tissue proliferation (pathological score) / Protein cast (pathological score): scale not given here
Protocol: as §1, §2, §3

[3] = after interference for four weeks, gavage, compared with model and normal group
[4] = Positive group, score per mouse 3-1 to 3-7

Structure (SMILES): Oc1ncnc2[nH]ncc12 [allopurinol]
- blood urea nitrogen levels [1, 3]: increased
- serum creatinine levels [1, 3]: increased
- serum uric acid levels [1, 3]: reduced to the levels of the normal group
- renal toxicity ([1]; mouse, in vivo): strong renal toxicity was generated
- activities of xanthine oxidase in serum and liver (xanthine oxidase (XOD)): the lowest
- Protein cast (pathological score) [2, 4]: 1 and 0 (6×)
- connective tissue proliferation (pathological score) [2, 4]: 0 (5×) and 1 (2×)
- inflammatory cell infiltration (pathological score) [2, 4]: 0 (2×) and 1 (5×)
- renal tubules atrophy (pathological score) [2, 4]: 0 (5×) and 1 (2×)
- renal tubules dilation (pathological score) [2, 4]: 0 (3×) and 1 (4×)
- renal tubules hydropic degeneration (pathological score) [2, 4]: 1 (4×) and 0 and 2 (2×)
- Total score (pathological scores of mice kidneys) ([2]; Positive group, sum over 7 mice): 22
- damages in renal tissues ([2]; pathological analysis, high uric acid mice): severe renal damages were caused

Reference: patent US20240165173A1, “METHOD OF REDUCING URIC ACID BY USING LACTOBACILLUS PARACASEI LT12” (priority 2022, published 2024)
